In US12077503B2, “Substituted cyclic amides and their use as herbicides” (FMC CORPORATION, priority 2015, dated 2024):

Columns and labels:
Format in all cases: in vivo
[1] = tested on: barnyardgrass (Echinochloa crus-galli); assay: Test G Pre-Emergence Protocol; conditions: Echinochloa crus-galli, pre-emergence, 312 h, evaluated after 13 days
Method in brief: (§1)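 Pots of seeds in standard soil were grown for one day in a glasshouse (24/16 °C day/night, 14 h light, 65% humidity), then sprayed with compound in acetone/water 50:50 with 0.5% Tween 20 at 15.625, 62.5 or 250 g/ha. Damage was scored after 13 days on a 0 (none) to 100 (total) scale.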

[2] = tested on: corn (Zea mays); assay: Test G Pre-Emergence Protocol; conditions: Zea mays, pre-emergence, 312 h, evaluated after 13 days
Method in brief: as §1

[3] = tested on: giant foxtail (Setaria faberi); assay: Test G Pre-Emergence Protocol; conditions: Setaria faberi, pre-emergence, 312 h, evaluated after 13 days
Method in brief: as §1

[4] = tested on: ivy-leaved morning glory (Ipomoea hederacea); assay: Test G Pre-Emergence Protocol; conditions: Ipomoea, pre-emergence, 312 h, evaluated after 13 days
Method in brief: as §1

[5] = tested on: redroot pigweed (Amaranthus retroflexus); assay: Test G Pre-Emergence Protocol; conditions: Amaranthus retroflexus, pre-emergence, 312 h, evaluated after 13 days
Method in brief: as §1

[6] = tested on: velvetleaf (Abutilon theophrasti); assay: Test G Pre-Emergence Protocol; conditions: Abutilon theophrasti, pre-emergence, 312 h, evaluated after 13 days
Method in brief: as §1

[7] = tested on: barnyardgrass (Echinochloa crus-galli); assay: Test G Post-Emergence Protocol; conditions: Echinochloa crus-galli, post-emergence, 312 h
Method in brief: (§2)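 Values are percent visual injury at 13 days after treatment (0 none, 100 total). Treatment was a post-emergence spray at 15.625, 62.5 or 250 g/ha on 8-day-old pot plants kept at 24/16 °C.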

[8] = tested on: corn (Zea mays); assay: Test G Post-Emergence Protocol; conditions: Zea mays, post-emergence, 312 h
Method in brief: as §2

[9] = tested on: giant foxtail (Setaria faberi); assay: Test G Post-Emergence Protocol; conditions: Setaria faberi, post-emergence, 312 h
Method in brief: as §2

[10] = tested on: ivy-leaved morning glory (Ipomoea hederacea); assay: Test G Post-Emergence Protocol; conditions: Ipomoea, post-emergence, 312 h
Method in brief: as §2

[11] = tested on: redroot pigweed (Amaranthus retroflexus); assay: Test G Post-Emergence Protocol; conditions: Amaranthus retroflexus, post-emergence, 312 h
Method in brief: as §2

[12] = tested on: velvetleaf (Abutilon theophrasti); assay: Test G Post-Emergence Protocol; conditions: Abutilon theophrasti, post-emergence, 312 h
Method in brief: as §2

CN1C[C@@H](c2ccc(C(F)(F)F)cc2)[C@H](C(=O)Nc2cc(C(F)(F)F)n(C)n2)C1=O (racemic) [Compound 1512]
0%: pest or weed control at 15.625 g/ha ([1]; 15.625 g ai/ha, read-out: Barnyard grass damage rating (100=total damage to plant; 0=no damage to plant)) | pest or weed control at 62.5 g/ha ([1]; 62.5 g ai/ha, 100=total damage to plant, 0=no damage to plant, read-out: plant damage rating, Barnyardgrass) | pest or weed control at 250 g/ha ([1]; 250 g ai/ha, read-out: Barnyardgrass damage rating (100=total damage to plant; 0=no damage to plant)) | plant injury at 15.625 g/ha ([2]; 15.625 g ai/ha, read-out: Corn damage rating (100=total damage to plant; 0=no damage to plant)) | plant injury at 62.5 g/ha ([2]; 62.5 g ai/ha, 100=total damage to plant, 0=no damage to plant, read-out: plant damage rating, Corn) | plant injury at 250 g/ha ([2]; 250 g ai/ha, read-out: Corn damage rating (100=total damage to plant; 0=no damage to plant)) | pest or weed control at 15.625 g/ha ([3]; 15.625 g ai/ha, read-out: Foxtail, Giant damage rating (100=total damage to plant; 0=no damage to plant)) | pest or weed control at 62.5 g/ha ([3]; 62.5 g ai/ha, 100=total damage to plant, 0=no damage to plant, read-out: plant damage rating, Foxtail, Giant) | pest or weed control at 250 g/ha ([3]; 250 g ai/ha, read-out: Foxtail, Giant damage rating (100=total damage to plant; 0=no damage to plant)) | pest or weed control at 15.625 g/ha ([4]; 15.625 g ai/ha, read-out: Morning-glory, Ivy-leaved damage rating (100=total damage to plant; 0=no damage to plant)) | pest or weed control at 62.5 g/ha ([4]; 62.5 g ai/ha, 100=total damage to plant, 0=no damage to plant, read-out: plant damage rating, Morningglory, Ivy-leaved) | pest or weed control at 250 g/ha ([4]; 250 g ai/ha, read-out: Morningglory, Ivy-leaved damage rating (100=total damage to plant; 0=no damage to plant)) | pest or weed control at 15.625 g/ha ([5]; 15.625 g ai/ha, read-out: Pigweed, Redroot damage rating (100=total damage to plant; 0=no damage to plant)) | pest or weed control at 62.5 g/ha ([5]; 62.5 g ai/ha, 100=total damage to plant, 0=no damage to plant, read-out: plant damage rating, Pigweed, Redroot) | pest or weed control at 250 g/ha ([5]; 250 g ai/ha, read-out: Pigweed, Redroot damage rating (100=total damage to plant; 0=no damage to plant)) | pest or weed control at 15.625 g/ha ([6]; 15.625 g ai/ha, read-out: Velvetleaf damage rating (100=total damage to plant; 0=no damage to plant)) | pest or weed control at 62.5 g/ha ([6]; 62.5 g ai/ha, 100=total damage to plant, 0=no damage to plant, read-out: plant damage rating, Velvetleaf) | pest or weed control at 250 g/ha ([6]; 250 g ai/ha, read-out: Velvetleaf damage rating (100=total damage to plant; 0=no damage to plant)) | pest or weed control at 15.625 g/ha ([7]; 15.625 g ai/ha, evaluated after 13 days (100=total damage to plant; 0=no damage to plant), read-out: Barnyardgrass damage rating) | pest or weed control at 62.5 g/ha ([7]; 62.5 g ai/ha, evaluated after 13 days, read-out: Barnyardgrass damage rating (100=total damage to plant; 0=no damage to plant)) | pest or weed control at 250 g/ha ([7]; 250 g ai/ha, evaluated after 13 days, read-out: damage to plant, Barnyardgrass (100=total damage to plant; 0=no damage to plant)) | plant injury at 15.625 g/ha ([8]; 15.625 g ai/ha, evaluated after 13 days (100=total damage to plant; 0=no damage to plant), read-out: Corn damage rating) | plant injury at 62.5 g/ha ([8]; 62.5 g ai/ha, evaluated after 13 days, read-out: Corn damage rating (100=total damage to plant; 0=no damage to plant)) | plant injury at 250 g/ha ([8]; 250 g ai/ha, evaluated after 13 days, read-out: damage to plant, Corn (100=total damage to plant; 0=no damage to plant)) | pest or weed control at 15.625 g/ha ([9]; 15.625 g ai/ha, evaluated after 13 days (100=total damage to plant; 0=no damage to plant), read-out: Foxtail, Giant damage rating) | pest or weed control at 62.5 g/ha ([9]; 62.5 g ai/ha, evaluated after 13 days, read-out: Foxtail, Giant damage rating (100=total damage to plant; 0=no damage to plant)) | pest or weed control at 250 g/ha ([9]; 250 g ai/ha, evaluated after 13 days, read-out: damage to plant, Foxtail, Giant (100=total damage to plant; 0=no damage to plant)) | pest or weed control at 15.625 g/ha ([10]; 15.625 g ai/ha, evaluated after 13 days (100=total damage to plant; 0=no damage to plant), read-out: Morningglory, Ivy-leaved damage rating) | pest or weed control at 62.5 g/ha ([10]; 62.5 g ai/ha, evaluated after 13 days, read-out: Morningglory, Ivy-leaved damage rating (100=total damage to plant; 0=no damage to plant)) | pest or weed control at 250 g/ha ([10]; 250 g ai/ha, evaluated after 13 days, read-out: damage to plant, Morningglory, Ivy-leaved (100=total damage to plant; 0=no damage to plant)) | pest or weed control at 15.625 g/ha ([11]; 15.625 g ai/ha, evaluated after 13 days (100=total damage to plant; 0=no damage to plant), read-out: Pigweed, Redroot damage rating) | pest or weed control at 62.5 g/ha ([11]; 62.5 g ai/ha, evaluated after 13 days, read-out: Pigweed, Redroot damage rating (100=total damage to plant; 0=no damage to plant)) | pest or weed control at 250 g/ha ([11]; 250 g ai/ha, evaluated after 13 days, read-out: damage to plant, Pigweed, Redroot (100=total damage to plant; 0=no damage to plant)) | pest or weed control at 15.625 g/ha ([12]; 15.625 g ai/ha, evaluated after 13 days (100=total damage to plant; 0=no damage to plant), read-out: Velvetleaf damage rating) | pest or weed control at 62.5 g/ha ([12]; 62.5 g ai/ha, evaluated after 13 days, read-out: Velvetleaf damage rating (100=total damage to plant; 0=no damage to plant)) | pest or weed control at 250 g/ha ([12]; 250 g ai/ha, evaluated after 13 days, read-out: damage to plant, Velvetleaf (100=total damage to plant; 0=no damage to plant))
